Read-outs that look alike come from different tables or passages of the source. Marks after values point to notes of the source that are not given here.
Legend:
[1] = Measurement of log P values by HPLC on reversed phase columns (EEC directive 79/831 Annex V.A8); details: for chromatographic logP: pH 2.7; for LogP: method [a], HPLC on reversed phase columns
Phytophthora infestans [2] = format: in vivo; details: tomato, preventive spray, 100 ppm of active ingredient, evaluated 7 days after inoculation
Plasmopara viticola = assay: Plasmopara test (grapevines)/preventive; format: in vivo; details: preventive spray, 10 ppm of active ingredient, evaluated 6 days after inoculation
Outline: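 Young grapevines sprayed preventively with compound formulated in acetone/dimethylacetamide with emulsifier, diluted in water, then inoculated with P. viticola spores after drying. Held 1 day at ~20 °C/100% RH, 4 days in greenhouse at ~21 °C/~90% RH, then misted for 1 day. Efficacy scored 6 days post-inoculation (0% = untreated control, 100% = no disease).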

Phytophthora infestans [3] = format: in vivo; details: tomato plants, spray, 500 ppm, grading 5 days after contamination
Uromyces appendiculatus = assay: In vivo test on Uromyces appendiculatus (brown rust of bean); details: Saxa variety plants, spray, 500 ppm, grading 10 days after contamination
Procedure: (§1) The active ingredients tested are prepared by homogenization in a mixture of acetone/tween/DMSO, then diluted with water to obtain the desired active material.
[…] (Saxa variety) sown on 50/50 peat soil-pozzolana substrate in starter cups and grown at 24° C., are treated at the 2-leaf stage (9 cm tall) by spraying with the aqueous suspension described above.
Plants, used as controls, are treated with an aqueous solution not containing the active material.
(§2) After 24 hours, the plants are contaminated by spraying the leaves with an aqueous suspension of Uromyces appendiculatus spores (150.000 spores per ml). The spores are collected from a 10-day-old contaminated […] and are suspended in water containing 2.5 ml/l of tween 80 10%. The contaminated […] are incubated for 24 hours at 20° C. and at 100% relative humidity, and then for 10 days at 20° C. and at 70% relative humidity. Grading is carried out 10 days after the contamination, in comparison with the control plants.
(§3) Under these conditions, good (at least 70%) or total protection is observed at a dose of 500 ppm with the following compounds: […]

[4] = pH 2.7
[5] = system: Mycosphaerella graminicola; assay: In vivo test on Mycosphaerella graminicola (wheat leaf spot); details: wheat plants, spray, 500 ppm, grading 21 to 28 days after contamination
Procedure: The active ingredients tested are prepared by homogenization in a mixture of acetone/tween/DMSO, then diluted with water to obtain the desired active material concentration.
Wheat plants (Scipion variety), sown on a 50/50 peat soil-pozzolana substrate in starter cups and grown at 22° C. (12 h)/20° C. (12 h), are treated at the 1-leaf stage (10 cm tall) by spraying with the aqueous suspension described above. Plants, used as controls, are treated with an aqueous solution not containing the active material.
After 24 hours, the plants are contaminated by spraying them with an aqueous suspension of cryopreserved Mycosphaerella graminicola spores (500.000 spores per ml). The contaminated wheat plants are incubated for 72 hours at 18° C. and at 100% relative humidity, and then for 21 to 28 days at 90% relative humidity.
Grading (% of efficacy) is carried out 21 to 28 days after the contamination, in comparison with the control plants.
as §3

Puccinia recondita = assay: In vivo test on Puccinia recondita (brown rust); details: wheat plants, spray, 500 ppm, grading 10 days after contamination
Procedure: as §1
Wheat plants (Scipion variety) sown on 50/50 peat soil-pozzolana substrate in starter cups and grown at 22° C. (12 h)/20° C. (12 h), are treated at the 1-leaf stage (10 cm tall) by spraying with the aqueous suspension described above.
as §2, with “Plants, used as controls, are treated with an aqueous solution not containing the active material. After” for “After”, “Puccinia recondite” for “Uromyces appendiculatus”, “(100.000” for “(150.000”
as §3

In the case of `Cn1c(/C(=N\OCc2cccc(N)n2)c2ccccc2)noc1=O` [Example 1, 3-[(Z)-{[(6-aminopyridin-2-yl)methoxy]imino}(phenyl)methyl]-4-methyl-1,2,4-oxadiazol-5(4H)-one], the chromatographic logP [1] is reported as 1.14.

Molecule `Cn1c(/C(=N\OCc2csc(N)n2)c2ccccc2)noc1=O` [Example 4, 3-[(Z)-{[(2-amino-1,3-thiazol-4-yl)methoxy]imino}(phenyl)methyl]-4-methyl-1,2,4-oxadiazol-5(4H)-one] has a chromatographic logP [1] of 1.54.

For `C=CCCCOC(=O)Nc1cccc(CO/N=C(/c2ccccc2)c2noc(=O)n2C)n1` [Example 6], the Eff. % (Phytophthora infestans [2]) was 98%, the Eff. % (Plasmopara viticola) was 100% and the LogP [1] was 4.06 [a].

`CCCCOC(=O)Nc1nc(CO/N=C(/c2ccccc2)c2noc(=O)n2C)cs1` [Example 14, butyl {4-[({[(Z)-(4-methyl-5-oxo-4,5-dihydro-1,2,4-oxadiazol-3-yl)(phenyl)methylene]amino}oxy)methyl]-1,3-thiazol-2-yl}carbamate] gave an Eff. % (Phytophthora infestans [2]) of 95%, an Eff. % (Plasmopara viticola) of 96% and a chromatographic logP [1] of 3.73.

Work on `CCCCOC(=O)Nc1cccc(CO/N=C(/c2ccccc2)c2noc(=O)n2C)n1` [Example 18, butyl {6-[({[(Z)-(4-methyl-5-oxo-4,5-dihydro-1,2,4-oxadiazol-3-yl)(phenyl)methylene]amino}oxy)methyl]pyridin-2-yl}carbamate] yielded an Eff. % (Phytophthora infestans [2]) of 95%, an Eff. % (Plasmopara viticola) of 100% and a chromatographic logP [1] of 4.04.

In the case of `CC(Oc1ccccc1)C(=O)Nc1nc(CO/N=C(/c2ccccc2)c2noc(=O)n2C)cs1` (stereo not shown) [Example 19], the Eff. % (Phytophthora infestans [2]) is reported as 95%, the Eff. % (Plasmopara viticola) is reported as 97% and the LogP [1] is reported as 3.71 [a].

Work on `Cn1c(/C(=N\OCc2cccc(NC(=O)OC(C)(C)C)n2)c2ccccc2)noc1=O` [Example 21, tert-butyl {6-[({[(Z)-(4-methyl-5-oxo-4,5-dihydro-1,2,4-oxadiazol-3-yl)(phenyl)methylene]amino}oxy)methyl]pyridin-2-yl}carbamate] yielded an Eff. % (Phytophthora infestans [2]) of 97%, an Eff. % (Plasmopara viticola) of 100% and a chromatographic logP [1] of 3.96.

In the case of `Nc1cccc(CO/N=C(/c2ccccc2)c2noc(=O)[nH]2)n1` [Example 23, 3-[(Z)-{[(6-aminopyridin-2-yl)methoxy]imino}(phenyl)methyl]-1,2,4-oxadiazol-5(4H)-one], the chromatographic logP [1] is reported as 1.36.

Work on `Nc1nc(CO/N=C(/c2ccccc2)c2noc(=O)[nH]2)cs1` [Example 24, 3-[(Z)-{[(2-amino-1,3-thiazol-4-yl)methoxy]imino}(phenyl)methyl]-1,2,4-oxadiazol-5(4H)-one] yielded a chromatographic logP [1] of 1.58.

`Cn1c(/C(=N/OCc2cccc(N)n2)c2ccccc2)noc1=O` [Example 25, 3-[(E)-{[(6-aminopyridin-2-yl)methoxy]imino}(phenyl)methyl]-4-methyl-1,2,4-oxadiazol-5(4H)-one] showed a chromatographic logP [1] of 1.14.

For `C#CCCCCC(=O)Nc1cccc(CO/N=C(/c2ccccc2)c2noc(=O)n2C)n1` [Example 37], the Eff. % (Plasmopara viticola) was 80%, the Eff. % (Phytophthora infestans [3]) was 100% and the LogP [1] was 3.37 [a].

In the case of `Cn1c(/C(=N\OCc2cccc(NC(=O)C3(C)CCCCC3)n2)c2ccccc2)noc1=O` [Example 40], the Eff. % (Phytophthora infestans [3]) is reported as 100% and the LogP [1] is reported as 4.36 [a].

With `COc1cccc(C(=O)Nc2cccc(CO/N=C(/c3ccccc3)c3noc(=O)n3C)n2)c1` [Example 44] the Eff. % (Plasmopara viticola) was 98%, the Eff. % (Phytophthora infestans [3]) was 100% and the LogP [1] was 3.62 [a].

With `Cn1c(/C(=N\OCc2cccc(NC(=O)C(c3ccccc3)c3ccccc3)n2)c2ccccc2)noc1=O` [Example 46] the LogP [1] was 4.48 [a].

In the case of `Cn1c(/C(=N\OCc2cccc(NC(=O)CCC3CC3)n2)c2ccccc2)noc1=O` [Example 62], the Eff. % (Phytophthora infestans [3]) is reported as 99%, the Eff. % (Uromyces appendiculatus) is reported as 71% and the LogP [4] is reported as 3.51 [a].

In the case of `C=CCCCCCC(=O)Nc1cccc(CO/N=C(/c2ccccc2)c2noc(=O)n2C)n1` [Example 99], the Eff. % (Phytophthora infestans [3]) is reported as 99%, the Eff. % (Uromyces appendiculatus) is reported as 71% and the LogP [4] is reported as 4.3 [a].

For `CC(Oc1ccccc1Br)C(=O)Nc1nc(CO/N=C(/c2ccccc2)c2noc(=O)n2C)cs1` (stereo not shown) [Example 113], the Eff. % (Phytophthora infestans [3]) was 90%, the Eff. % (Uromyces appendiculatus) was 79% and the LogP [4] was 4.2 [a].

Molecule `CCCC(C)C(=O)Nc1cccc(CO/N=C(/c2ccccc2)c2noc(=O)n2CC)n1` (stereo not shown) [Example 172] has an Eff. % (Phytophthora infestans [3]) of 100%, an Eff. % [5] of 86% and an Eff. % (Puccinia recondita) of 89%. The LogP [4] was 4.06 [a].

Work on `Cn1c(/C(=N\OCc2cccc(NC(=O)CC(C)(C)C)n2)c2ccccc2)noc1=O` [Example 173] yielded an Eff. % (Plasmopara viticola) of 86%, an Eff. % (Phytophthora infestans [3]) of 100% and an Eff. % [5] of 73%. The Eff. % (Puccinia recondita) was 89% and the LogP [4] was 3.78 [a].

For `CC(Oc1ccc(Br)cc1)C(=O)Nc1nc(CO/N=C(/c2ccccc2)c2noc(=O)n2C)cs1` (stereo not shown) [Example 216], the Eff. % (Phytophthora infestans [3]) was 95%, the Eff. % (Uromyces appendiculatus) was 71% and the LogP [4] was 4.17 [a].

In the case of `CCCC(C)(C)OC(=O)Nc1cccc(CO/N=C(/c2ccccc2)c2noc(=O)n2C)n1` [Example 233, 2-methylpentan-2-yl {6-[({[(Z)-(4-methyl-5-oxo-4,5-dihydro-1,2,4-oxadiazol-3-yl)(phenyl)methylene]amino}oxy)methyl]pyridin-2-yl}carbamate], the Eff. % (Plasmopara viticola) is reported as 78%, the Eff. % (Phytophthora infestans [3]) is reported as 99% and the Eff. % (Puccinia recondita) is reported as 98%. For the same molecule, the chromatographic logP [1] was 4.77.

In the case of `CCCC(C)C(=O)Nc1cccc(CON=C(c2ccccc2)c2noc(=O)n2C)n1` (stereo not shown) [Example 248], the Eff. % (Plasmopara viticola) is reported as 85%, the Eff. % (Phytophthora infestans [3]) is reported as 100% and the Eff. % [5] is reported as 86%. For the same molecule, the LogP [4] was 3.8 [a].

Work on `Cn1c(/C(=N\OCc2cccc(NCCC3CCCCC3)n2)c2ccccc2)noc1=O` [Example 253, 3-[(Z)-[({6-[(2-cyclohexylethyl)amino]pyridin-2-yl}methoxy)imino](phenyl)methyl]-4-methyl-1,2,4-oxadiazol-5(4H)-one] yielded a chromatographic logP [1] of 2.96.

With `CCn1c(C(=NOCc2cccc(NC(=O)OCCc3ccccc3)n2)c2ccccc2)noc1=O` [Example 270] the Eff. % (Phytophthora infestans [3]) was 100%, the Eff. % [5] was 86% and the LogP [4] was 4.41 [a].

In the case of `CC(Oc1ccc(Cl)cc1)C(=O)Nc1nc(CO/N=C(/c2ccccc2)c2noc(=O)n2C)cs1` (stereo not shown) [Example 276], the Eff. % (Phytophthora infestans [3]) is reported as 98%, the Eff. % (Uromyces appendiculatus) is reported as 89% and the LogP [4] is reported as 4.07 [a].

Molecule `Cn1c(/C(=N\OCc2cccc(N(CCC3CCCCC3)C(=O)OC(C)(C)C)n2)c2ccccc2)noc1=O` [Example 279, tert-butyl (2-cyclohexylethyl){6-[({[(Z)-(4-methyl-5-oxo-4,5-dihydro-1,2,4-oxadiazol-3-yl)(phenyl)methylene]amino}oxy)methyl]pyridin-2-yl}carbamate] has a chromatographic logP [1] of 6.73.

In the case of `Cn1c(/C(=N\OCc2cccc(NC(=O)Cc3ccccc3)n2)c2ccccc2)noc1=O` [Example 341], the Eff. % (Phytophthora infestans [3]) is reported as 100%, the Eff. % [5] is reported as 70% and the LogP [4] is reported as 3.53 [a].

With `CCCCC(=O)Nc1cccc(CO/N=C(/c2cccc(C)c2)c2noc(=O)n2C)n1` [Example 384] the Eff. % (Phytophthora infestans [3]) was 100%, the Eff. % [5] was 70% and the Eff. % (Puccinia recondita) was 79%. For the same molecule, the LogP [4] was 3.83 [a].

In the case of `NC(=N\O)/C(=N\OCc1csc(N)n1)c1ccccc1` [Example V-2, (1Z,2Z)-2-{[(2-amino-1,3-thiazol-4-yl)methoxy]imino}-N′-hydroxy-2-phenylethanimidamide], the chromatographic logP [1] is reported as 0.43.

For `N/C(=N\O)C(=NOCc1cccc(N)n1)c1ccccc1` [Example V-3, (Z)-2-{[(6-aminopyridin-2-yl)methoxy]imino}-N′-hydroxy-2-phenylethanimidamide], the chromatographic logP [1] was 0.41.

For `Cn1c(C(=O)c2ccccc2)noc1=O` [VII-1, 3-benzoyl-4-methyl-1,2,4-oxadiazol-5(4H)-one], the chromatographic logP [1] was 3.21.

— patent publication US9090600B2, “Fungicidal 4-substituted-3-{phenyl[(heterocyclylmethoxy)imino]methyl}-1,2,4-oxadizol-5(4H)-one derivatives” (BAYER INTELLECTUAL PROPERTY GMBH, priority 2011, dated 2015)
